Tests used:
[1] = target: Calcium/calmodulin-dependent protein kinase type II subunit gamma (Homo sapiens, UniProt Q13555); experiment: Inhibition of CAMK2G
[2] = target: Cyclin-dependent kinase 1 (Homo sapiens, UniProt P06493); experiment: Inhibition of CDC2
[3] = target: Cyclin-dependent kinase 2 (Homo sapiens, UniProt P24941); experiment: Inhibition of CDK2
[4] = target: Cyclin-dependent kinase 9 (Homo sapiens, UniProt P50750); experiment: Inhibition of CDK9
[5] = target: Casein kinase II subunit alpha (Homo sapiens, UniProt P68400); experiment: Inhibition of CK2a1
[6] = target: T1, Casein kinase II subunit alpha' (Homo sapiens, UniProt P19784); experiment: Inhibition of CK2a2
[7] = target: Casein kinase I isoform alpha (Homo sapiens, UniProt P48729); experiment: Inhibition of CSNK1A1
[8] = target: Casein kinase I isoform epsilon (Homo sapiens, UniProt P49674); experiment: Inhibition of CSNK1E
[9] = target: T1, Casein kinase II subunit alpha'; experiment: Inhibition of CSNK2A2
[10] = target: Tyrosine-protein kinase Fer (Homo sapiens, UniProt P16591); experiment: Inhibition of FER
[11] = target: Scaffold protein ILK (Homo sapiens, UniProt Q13418); experiment: Inhibition of ILK
[12] = target: Interleukin-1 receptor-associated kinase 3 (Homo sapiens, UniProt Q9Y616); experiment: Inhibition of IRAK3
[13] = target: Tyrosine-protein kinase ITK/TSK (Homo sapiens, UniProt Q08881); experiment: Inhibition of ITK
[14] = target: LIM domain kinase 2 (Homo sapiens, UniProt P53671); experiment: Inhibition of LIMK2
[15] = target: Mitogen-activated protein kinase kinase kinase 11 (Homo sapiens, UniProt Q16584); experiment: Inhibition of MAP3K11
[16] = target: Serine/threonine-protein kinase MARK2 (Homo sapiens, UniProt Q7KZI7); experiment: Inhibition of MARK2
[17] = target: MAP/microtubule affinity-regulating kinase 4 (Homo sapiens, UniProt Q96L34); experiment: Inhibition of MARK4
[18] = target: Serine/threonine-protein kinase Nek9 (Homo sapiens, UniProt Q8TD19); experiment: Inhibition of NEK9
[19] = target: Serine/threonine-protein kinase NLK (Homo sapiens, UniProt Q9UBE8); experiment: Inhibition of NLK
[20] = target: Phosphatidylinositol 4,5-bisphosphate 3-kinase catalytic subunit beta isoform (Homo sapiens, UniProt P42338); experiment: Inhibition of PIK3Cb
[21] = target: Phosphatidylinositol 4-kinase beta (Homo sapiens, UniProt Q9UBF8); experiment: Inhibition of PIK4Cb
[22] = target: Membrane-associated tyrosine- and threonine-specific cdc2-inhibitory kinase (Homo sapiens, UniProt Q99640); experiment: Inhibition of PKMYT1
[23] = target: 5'-AMP-activated protein kinase catalytic subunit alpha-1 (Homo sapiens, UniProt Q13131); experiment: Inhibition of PRKAA1
[24] = target: Ribosomal protein S6 kinase alpha-1 (Homo sapiens, UniProt Q15418); experiment: Inhibition of RPS6KA1
[25] = target: Serine/threonine-protein kinase 16 (Homo sapiens, UniProt O75716); experiment: Inhibition of STK16
[26] = target: Serine/threonine-protein kinase 3 (Homo sapiens, UniProt Q13188); experiment: Inhibition of STK3
[27] = target: Serine/threonine-protein kinase TBK1 (Homo sapiens, UniProt Q9UHD2); experiment: Inhibition of TBK1
[28] = target: Tyrosine-protein kinase Tec (Homo sapiens, UniProt P42680); experiment: Inhibition of TEC
[29] = target: Dual specificity testis-specific protein kinase 2 (Homo sapiens, UniProt Q96S53); experiment: Inhibition of TESK2
[30] = target: Non-receptor tyrosine-protein kinase TNK1 (Homo sapiens, UniProt Q13470); experiment: Inhibition of TNK1
[31] = target: Activated CDC42 kinase 1 (Homo sapiens, UniProt Q07912); experiment: Inhibition of TNK2
[32] = target: Mitogen-activated protein kinase kinase kinase 20 (Homo sapiens, UniProt Q9NYL2); experiment: Inhibition of ZAK
[33] = target: Phosphatidylinositol 4,5-bisphosphate 3-kinase catalytic subunit delta isoform/gamma isoform (Homo sapiens, UniProt P48736+O00329); experiment: Inhibition of PI3Kgamma/delta by neutrophil migration assay
[34] = target: Voltage-gated inwardly rectifying potassium channel KCNH2 (Homo sapiens, UniProt Q12809); experiment: Inhibition of human ERG at >250 uM by patch clamp method
[35] = target: Cytochrome P450 2C9 (Homo sapiens, UniProt P11712); experiment: Inhibition of CYP2C9 at >20 uM; assay type: ADME
[36] = tested on: Mus musculus; experiment: Antiinflammatory activity in mouse air pouch model assessed as effect on IL-8-induced migration of granulocytes into air pouch at 1 mg/kg, po; assay type: functional
[37] = tested on: Mus musculus; experiment: Antiinflammatory activity in mouse air pouch model assessed as effect on IL-8-induced migration of granulocytes into air pouch at 3 mg/kg, po; assay type: functional
[38] = tested on: Mus musculus; experiment: Antiarthritic activity against collagen-induced arthritis mouse model assessed as mean clinical arthritis score with AUC calculation in at 3 mg/kg, po BID for 14 days; assay type: functional
[39] = tested on: Mus musculus; experiment: Antiarthritic activity against collagen-induced arthritis mouse model assessed as mean clinical arthritis score with AUC calculation in at 10 mg/kg, po BID for 14 days; assay type: functional
[40] = Cmax in mouse at 10 mg/kg, po BID; assay type: ADME, organism-based; parameters: dose 10 mg/kg, route oral; conditions: in vivo
[41] = target: Activin receptor type-1B (Homo sapiens, UniProt P36896); experiment: Inhibition of ACVR1B
[42] = target: Activin receptor type-2A (Homo sapiens, UniProt P27037); experiment: Inhibition of ACVR2A
[43] = target: Atypical kinase COQ8B, mitochondrial (Homo sapiens, UniProt Q96D53); experiment: Inhibition of ADCK4
[44] = target: Serine/threonine-protein kinase A-Raf (Homo sapiens, UniProt P10398); experiment: Inhibition of ARAF
[45] = target: Serine-protein kinase ATM (Homo sapiens, UniProt Q13315); experiment: Inhibition of ATM
[46] = target: Serine/threonine-protein kinase ATR (Homo sapiens, UniProt Q13535); experiment: Inhibition of ATR
[47] = target: Bone morphogenetic protein receptor type-1A (Homo sapiens, UniProt P36894); experiment: Inhibition of BMPR1A
[48] = target: Serine/threonine-protein kinase B-raf (Homo sapiens, UniProt P15056); experiment: Inhibition of BRAF
[49] = target: Bromodomain-containing protein 4 (Homo sapiens, UniProt O60885); experiment: Inhibition of BRD4
[50] = target: Atypical kinase COQ8A, mitochondrial (Homo sapiens, UniProt Q8NI60); experiment: Inhibition of CABC1
[51] = target: Calcium/calmodulin-dependent protein kinase type 1D (Homo sapiens, UniProt Q8IU85); experiment: Inhibition of CAMK1D
[52] = target: Mitogen-activated protein kinase 9 (Homo sapiens) (UniProt P45984); experiment: Inhibition of MAPK9
[53] = Oral bioavailability in Wistar rat at 5 mg/kg; 1 mg/kg, iv; conditions: in vivo

T1 sequence (P19784 whole entry, canonical isoform): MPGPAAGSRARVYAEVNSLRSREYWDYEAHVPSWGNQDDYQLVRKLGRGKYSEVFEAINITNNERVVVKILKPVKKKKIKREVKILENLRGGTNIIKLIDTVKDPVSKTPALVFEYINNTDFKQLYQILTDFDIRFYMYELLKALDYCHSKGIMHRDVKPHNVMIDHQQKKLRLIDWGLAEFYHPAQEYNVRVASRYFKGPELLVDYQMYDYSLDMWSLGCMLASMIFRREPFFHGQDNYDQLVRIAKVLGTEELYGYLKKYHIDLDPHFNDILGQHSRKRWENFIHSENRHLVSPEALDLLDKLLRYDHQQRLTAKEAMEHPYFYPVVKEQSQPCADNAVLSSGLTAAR
LIM domain kinase 2, sequence (P53671 whole entry, the tested form may be a part): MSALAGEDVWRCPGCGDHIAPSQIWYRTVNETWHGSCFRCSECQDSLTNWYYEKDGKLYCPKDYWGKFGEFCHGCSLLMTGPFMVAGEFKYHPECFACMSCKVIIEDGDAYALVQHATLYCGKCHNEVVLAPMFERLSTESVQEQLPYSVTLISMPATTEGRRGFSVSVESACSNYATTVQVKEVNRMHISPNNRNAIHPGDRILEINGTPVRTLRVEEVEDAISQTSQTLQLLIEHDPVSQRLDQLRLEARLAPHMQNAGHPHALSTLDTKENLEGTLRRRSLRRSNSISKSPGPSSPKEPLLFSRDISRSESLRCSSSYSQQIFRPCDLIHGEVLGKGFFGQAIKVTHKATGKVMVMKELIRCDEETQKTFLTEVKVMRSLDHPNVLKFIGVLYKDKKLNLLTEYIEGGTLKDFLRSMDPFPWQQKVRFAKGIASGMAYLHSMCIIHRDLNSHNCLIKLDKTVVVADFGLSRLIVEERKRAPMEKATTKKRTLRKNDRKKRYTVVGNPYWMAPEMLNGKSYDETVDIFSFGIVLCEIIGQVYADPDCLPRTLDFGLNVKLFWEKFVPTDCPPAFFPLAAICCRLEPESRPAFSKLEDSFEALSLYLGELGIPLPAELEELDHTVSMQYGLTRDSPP
Phosphatidylinositol 4,5-bisphosphate 3-kinase catalytic subunit beta isoform, sequence (P42338 whole entry, canonical isoform): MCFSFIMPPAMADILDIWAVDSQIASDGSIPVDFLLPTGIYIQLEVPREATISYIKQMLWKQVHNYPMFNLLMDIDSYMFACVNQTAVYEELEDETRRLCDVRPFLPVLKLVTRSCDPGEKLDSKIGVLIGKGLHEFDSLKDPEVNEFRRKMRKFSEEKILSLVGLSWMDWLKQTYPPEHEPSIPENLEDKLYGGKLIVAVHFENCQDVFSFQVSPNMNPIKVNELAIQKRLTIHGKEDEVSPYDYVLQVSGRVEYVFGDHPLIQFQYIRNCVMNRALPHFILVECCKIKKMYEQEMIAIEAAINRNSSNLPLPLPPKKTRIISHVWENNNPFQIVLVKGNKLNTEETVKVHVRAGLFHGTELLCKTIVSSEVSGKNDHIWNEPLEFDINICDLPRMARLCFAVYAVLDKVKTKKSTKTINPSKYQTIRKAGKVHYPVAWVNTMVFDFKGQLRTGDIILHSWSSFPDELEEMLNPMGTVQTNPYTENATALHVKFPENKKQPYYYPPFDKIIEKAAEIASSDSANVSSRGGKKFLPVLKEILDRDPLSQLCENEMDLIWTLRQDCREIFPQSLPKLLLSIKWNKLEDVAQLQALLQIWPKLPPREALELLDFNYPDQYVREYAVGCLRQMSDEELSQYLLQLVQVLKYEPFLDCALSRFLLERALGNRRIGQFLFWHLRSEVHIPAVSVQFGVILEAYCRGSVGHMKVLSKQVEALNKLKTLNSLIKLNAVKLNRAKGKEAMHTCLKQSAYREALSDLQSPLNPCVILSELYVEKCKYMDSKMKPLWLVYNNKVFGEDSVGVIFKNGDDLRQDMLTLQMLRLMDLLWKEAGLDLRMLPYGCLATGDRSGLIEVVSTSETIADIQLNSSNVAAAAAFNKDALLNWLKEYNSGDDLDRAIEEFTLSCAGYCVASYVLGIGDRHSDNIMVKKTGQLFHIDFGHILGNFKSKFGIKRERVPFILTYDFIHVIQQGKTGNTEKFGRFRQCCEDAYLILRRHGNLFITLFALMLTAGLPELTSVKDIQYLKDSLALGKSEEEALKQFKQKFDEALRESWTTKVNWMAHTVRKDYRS
Bone morphogenetic protein receptor type-1A, sequence (P36894 whole entry): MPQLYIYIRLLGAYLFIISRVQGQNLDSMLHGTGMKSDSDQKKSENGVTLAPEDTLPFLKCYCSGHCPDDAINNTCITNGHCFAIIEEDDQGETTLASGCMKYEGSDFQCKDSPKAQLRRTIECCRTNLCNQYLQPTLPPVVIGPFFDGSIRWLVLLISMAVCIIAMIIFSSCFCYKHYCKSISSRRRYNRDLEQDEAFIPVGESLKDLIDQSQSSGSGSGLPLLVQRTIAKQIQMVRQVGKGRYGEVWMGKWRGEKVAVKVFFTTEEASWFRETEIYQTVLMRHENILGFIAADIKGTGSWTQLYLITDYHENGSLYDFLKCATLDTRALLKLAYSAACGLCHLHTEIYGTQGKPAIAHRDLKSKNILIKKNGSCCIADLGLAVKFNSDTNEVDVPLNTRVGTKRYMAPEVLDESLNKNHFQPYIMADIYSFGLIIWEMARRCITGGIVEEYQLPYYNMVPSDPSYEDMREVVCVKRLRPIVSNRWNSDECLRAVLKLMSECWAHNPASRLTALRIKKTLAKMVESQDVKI
Scaffold protein ILK, sequence (Q13418 whole entry): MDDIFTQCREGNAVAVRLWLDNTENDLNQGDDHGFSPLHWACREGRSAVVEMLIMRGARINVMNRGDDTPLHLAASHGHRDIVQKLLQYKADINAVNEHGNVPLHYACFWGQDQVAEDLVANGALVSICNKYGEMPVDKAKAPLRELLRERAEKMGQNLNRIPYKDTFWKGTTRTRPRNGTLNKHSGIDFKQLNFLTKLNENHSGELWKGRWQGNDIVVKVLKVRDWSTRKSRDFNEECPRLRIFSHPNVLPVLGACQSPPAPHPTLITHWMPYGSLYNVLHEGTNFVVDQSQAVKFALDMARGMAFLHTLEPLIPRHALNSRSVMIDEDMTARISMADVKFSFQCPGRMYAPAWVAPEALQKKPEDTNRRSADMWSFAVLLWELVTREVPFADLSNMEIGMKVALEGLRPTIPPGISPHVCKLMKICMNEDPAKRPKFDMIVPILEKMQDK
Voltage-gated inwardly rectifying potassium channel KCNH2, sequence (Q12809 whole entry): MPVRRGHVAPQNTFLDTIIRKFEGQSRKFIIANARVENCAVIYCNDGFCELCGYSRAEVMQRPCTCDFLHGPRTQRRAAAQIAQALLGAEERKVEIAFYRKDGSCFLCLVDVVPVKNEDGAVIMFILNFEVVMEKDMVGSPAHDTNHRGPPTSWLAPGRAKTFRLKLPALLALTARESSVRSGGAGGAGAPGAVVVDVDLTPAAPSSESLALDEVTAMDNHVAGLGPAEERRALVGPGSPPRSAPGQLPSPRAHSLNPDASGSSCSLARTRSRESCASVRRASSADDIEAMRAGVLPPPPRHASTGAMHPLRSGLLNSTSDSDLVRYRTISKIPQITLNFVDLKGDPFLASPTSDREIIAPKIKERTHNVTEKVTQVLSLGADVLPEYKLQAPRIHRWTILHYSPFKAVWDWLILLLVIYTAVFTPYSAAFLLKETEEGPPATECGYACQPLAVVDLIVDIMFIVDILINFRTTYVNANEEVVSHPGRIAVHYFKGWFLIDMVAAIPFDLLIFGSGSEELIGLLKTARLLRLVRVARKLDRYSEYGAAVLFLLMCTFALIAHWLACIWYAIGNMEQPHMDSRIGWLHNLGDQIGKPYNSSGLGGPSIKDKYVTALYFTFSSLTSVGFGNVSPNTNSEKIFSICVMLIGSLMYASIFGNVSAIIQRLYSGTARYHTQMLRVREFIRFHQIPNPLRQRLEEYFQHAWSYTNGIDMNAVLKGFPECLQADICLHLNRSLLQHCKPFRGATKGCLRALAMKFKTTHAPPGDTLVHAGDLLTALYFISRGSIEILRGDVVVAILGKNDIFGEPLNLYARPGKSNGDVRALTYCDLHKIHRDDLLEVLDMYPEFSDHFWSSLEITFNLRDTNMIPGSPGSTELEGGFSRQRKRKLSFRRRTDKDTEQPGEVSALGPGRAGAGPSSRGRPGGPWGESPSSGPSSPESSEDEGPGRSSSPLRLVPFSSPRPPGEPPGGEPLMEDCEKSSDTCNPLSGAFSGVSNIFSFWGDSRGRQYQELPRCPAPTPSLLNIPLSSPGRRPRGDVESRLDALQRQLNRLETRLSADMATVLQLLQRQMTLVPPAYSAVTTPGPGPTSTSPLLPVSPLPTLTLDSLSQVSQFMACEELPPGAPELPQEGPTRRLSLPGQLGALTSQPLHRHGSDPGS
Activin receptor type-1B, sequence (P36896 whole entry): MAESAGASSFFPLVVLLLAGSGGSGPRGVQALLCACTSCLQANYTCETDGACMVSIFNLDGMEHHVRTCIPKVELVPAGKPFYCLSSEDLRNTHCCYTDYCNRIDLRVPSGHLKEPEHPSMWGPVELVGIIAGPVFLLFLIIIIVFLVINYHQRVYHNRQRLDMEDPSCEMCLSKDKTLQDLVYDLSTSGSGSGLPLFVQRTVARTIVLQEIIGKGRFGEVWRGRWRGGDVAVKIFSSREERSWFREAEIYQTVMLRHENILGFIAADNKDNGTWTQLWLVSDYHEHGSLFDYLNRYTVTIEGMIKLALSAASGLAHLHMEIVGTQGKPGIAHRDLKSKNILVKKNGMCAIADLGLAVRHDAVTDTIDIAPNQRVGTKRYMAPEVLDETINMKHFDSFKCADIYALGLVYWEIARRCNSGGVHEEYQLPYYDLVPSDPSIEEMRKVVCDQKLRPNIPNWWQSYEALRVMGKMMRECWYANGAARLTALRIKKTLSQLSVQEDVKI
Serine/threonine-protein kinase 16, sequence (O75716 whole entry): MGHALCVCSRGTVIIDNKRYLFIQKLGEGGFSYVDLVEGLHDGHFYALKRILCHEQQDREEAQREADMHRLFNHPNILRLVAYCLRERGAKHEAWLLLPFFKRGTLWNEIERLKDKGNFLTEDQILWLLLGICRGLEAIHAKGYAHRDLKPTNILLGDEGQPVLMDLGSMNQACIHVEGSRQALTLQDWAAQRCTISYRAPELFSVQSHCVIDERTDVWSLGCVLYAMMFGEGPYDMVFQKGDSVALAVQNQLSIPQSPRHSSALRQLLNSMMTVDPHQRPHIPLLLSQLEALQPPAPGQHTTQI

`CC(C)(C)NS(=O)(=O)c1cncc(-c2ccn3nc(N)nc3c2)c1` showed an IC50 [1] of over 10 µM, an IC50 [2] of over 10 µM and an IC50 [3] of over 10 µM. For the same compound, the IC50 [4] was over 10 µM, the IC50 [5] was over 10 µM and the IC50 [6] was over 10 µM. For the same compound, the IC50 [7] was 9.12 µM, the IC50 [8] was over 10 µM and the IC50 [9] was over 10 µM. For the same compound, the IC50 [10] was over 10 µM, the IC50 [11] was over 10 µM and the IC50 [12] was over 10 µM. The IC50 [13] was over 10 µM, the IC50 [14] was over 10 µM and the IC50 [15] was over 10 µM. For the same compound, the IC50 [16] was over 10 µM, the IC50 [17] was over 10 µM and the IC50 [18] was over 10 µM. It also gave an IC50 [19] of over 10 µM, an IC50 [20] of 490 nM and an IC50 [21] of over 10 µM. For the same compound, the IC50 [22] was over 10 µM, the IC50 [23] was over 10 µM and the IC50 [24] was over 10 µM. For the same compound, the IC50 [25] was over 10 µM, the IC50 [26] was over 10 µM and the IC50 [27] was over 10 µM. The IC50 [28] was over 10 µM, the IC50 [29] was over 10 µM and the IC50 [30] was over 10 µM. The IC50 [31] was over 10 µM, the IC50 [32] was over 10 µM and the pIC50 [33] was 6.3. The “inhibition (INH)” value [34] was “Not Active”, the “inhibition (INH)” value [35] was “Active” and the Activity [36] was 18%. It also gave an Activity [37] of 74%, an Activity [38] of 30% and an Activity [39] of 42%. For the same compound, the Cmax [40] was 10.2 µM, the IC50 [41] was over 10 µM and the IC50 [42] was over 10 µM. It also gave an IC50 [43] of over 10 µM, an IC50 [44] of over 10 µM and an IC50 [45] of over 10 µM. The IC50 [46] was over 5.89 µM, the IC50 [47] was over 10 µM and the IC50 [48] was over 10 µM. It also gave an IC50 [49] of over 10 µM, an IC50 [50] of over 10 µM and an IC50 [51] of over 10 µM. The IC50 [52] was over 10 µM and the bioavailability [53] was 81%.

Source: ChEMBL document CHEMBL2203257 (Bioorg Med Chem Lett, 2012)
